In PubChem BioAssay AID179 (DTP/NCI, 2004):
The source made the active and inactive calls.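 How the source made its calls: active means compounds giving half or more protection of infected cells from virus-caused growth loss, again on retest; inactive means the rest.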 Where a SMILES comes first, the peptide text is derived from it.

System: CEM cells HIV-1 protection, formazan growth assay
Test: NCI AIDS Antiviral Assay
Details: for IC50: measured here: growth of uninfected CEM cells
How it was run: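 Soluble formazan readout of cell growth; CEM cells ± HIV-1; 5 drug concs. ≥50% protection → retest; ≥50% again = moderately active; reproducible 100% = confirmed active.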

SMILES | outcome | EC50 [µM] | IC50 [µM]
COc1ccc(-c2oc3cc(OC(C)=O)cc(OC(C)=O)c3c(=O)c2OC)cc1 | inactive | – | –
Clc1ccc(C2=NOC3C4CCC(C4)C23)cc1 (centres undefined) | inactive | – | –
CC(=O)NC1C(OCc2ccccc2)OC(CO)C(O)C1OC(C)C(=O)NC(C)C(=O)N[C@H](CCC(=O)OCCNCCCNc1ccc([N+](=O)[O-])c2[nH]c3ccccc3c(=O)c12)C(N)=O (some centres undefined) | – | > 200 | 60.3
Cc1[nH]c2ccccc2c1-c1n[nH]c(=O)c2ccccc12 | inactive | – | –
Oc1ccc2ccccc2c1C1=NNc2n[nH]c(=S)n2N1 | – | > 148 | 19.1
O=[N+]([O-])C(=C1NCCN1)C(Cl)=C(Cl)Cl | – | > 200 | > 200
O=CC12CCCN1CCC2 | – | > 200 | > 200
O=C(OCC(Cl)(Cl)Cl)OCC(Cl)(Cl)Cl | – | > 200 | > 200
Cc1nc2cccc(F)c2c(=O)n1-c1nnc(C(F)(F)F)s1 | – | > 200 | 4.47
S=C1NC(/C=C/c2ccccc2)Nc2ccccc21 (centres undefined) | – | > 26.9 | > 26.9
CCOC(=O)C(NC(=O)c1ccc(N=NN(C)C)cc1)C(C)C (centres undefined) | – | > 407 | 309
O=[N+]([O-])c1cc(/C=N\NS(=O)(=O)c2ccc(Cl)cc2)c(O)c([N+](=O)[O-])c1 | – | > 617 | 34.7
O=C(c1ccccc1)n1[nH]c(=O)n(-c2ccc(Cl)cc2)c1=O | – | > 200 | > 200
COC1(OC)C2(Cl)C(Cl)=C(Cl)C1(Cl)C1C=CC=CC12 (centres undefined) | inactive | – | –
COC(=O)c1ccc(C)cc1/C=C1\Cc2ccc(C)cc2C1=O | – | > 200 | 18.6
CCCCCCCCCCCCCc1nn[nH]n1 | – | > 102 | > 100
CCCCCCCC1(N=[N+]=[N-])C(=O)Nc2ccccc2C1=O (centres undefined) | – | > 200 | 20
NCCS/C=C/C(=O)OCc1ccc(Br)cc1 | – | > 708 | 97.7
O=[N+]([O-])c1ccc(-n2nc3ccc4c(no[n+]4[O-])c3[n+]2[O-])c([N+](=O)[O-])c1 | – | > 20 | 0.407
Cc1c2c(n(CCN(C)C)c1C)NN=C(C#N)S2(=O)=O | – | > 200 | > 200
COc1ccc(C2OC(=O)c3cc[nH]c(=O)c32)cc1 (centres undefined) | – | > 141 | > 141
COC(=O)CCn1c(N)nc2c1c(=O)n(C)c(=O)n2C | – | > 468 | > 468

SMILES | outcome | EC50 [µM] | IC50 [µM]
CC(=O)OC12CC[N+]3(C)CCCCC3C1=Nc1ccccc12 (centres undefined) | – | > 589 | 479
O=C1OC(=O)c2c1ccc1ccc(Cl)cc21 | inactive | – | –
CCOP(=O)(OCC)C(NC(=O)OCC(Cl)(Cl)Cl)n1nnc(C(=O)OC)c1C(=O)OC (centres undefined) | – | > 200 | > 200
CCOC(CCc1c(C)nc(NC(C)=O)[nH]c1=O)OCC | – | > 200 | > 200
Cc1sc2nc3n(c(=O)c2c1C)N=CN(c1ccc(Cl)cc1)C3 | – | 9.33 | 50.1
Cc1ccc(S(=O)(=O)Nn2c(-c3ccccc3)c(C#N)c(-c3ccc([N+](=O)[O-])cc3)c(C#N)c2=O)cc1 | – | > 200 | 56.2
CCO[C@H]1OC(=O)[C@@H]2C(c3ccc(F)cc3)=NO[C@H]12 | – | > 135 | > 135
Cc1cn2c(n1)sc1ccccc12 | – | > 200 | > 200
C[C@@H](Br)[C@@H]1CC[C@H]2c3[nH]c4ccccc4c3CCN2C1 | – | > 200 | 17.4
NS(=O)(=O)c1ccc(NC(=O)COC(=O)c2cccc3c(=O)c4ccccc4[nH]c23)cc1 | inactive | – | –
Clc1cccc(C2=NOC3COC4C=CC=CC4OCC23)c1 (centres undefined) | – | > 58.9 | > 58.9
CCOC(=O)C(CC#Cc1ccc(C#CCC(NC(C)=O)C(=O)OCC)cc1)NC(C)=O (centres undefined) | – | > 200 | > 200
O=[N+]([O-])/C=C/c1ccc(O)cc1 | inactive | – | –
CCSc1[nH]c(NC(=S)NC(=O)c2ccccc2Cl)c(C(N)=O)c1C(N)=O | – | > 200 | 110
CC(=O)C1(N=Nc2ccc(S(=O)(=O)Nc3nnc(C)s3)cc2)CCOC1=O (centres undefined) | – | > 200 | > 200
O=C1CC(NC(=O)C(F)(F)F)c2c(Br)sc(N3CCC(c4ccccc4)CC3)c21 (centres undefined) | – | > 200 | 145
CC(C)OCC(O)COc1cc(=O)oc2ccccc12 (centres undefined) | – | > 200 | > 200
CCOC(=O)c1oc2c(OC)ccc3c2c1CCC3 | inactive | – | –
O=S(C/C=C/CS(=O)c1ccccc1)c1ccccc1 (centres undefined) | – | > 813 | 70.8
CCCC(CC)C(C(=O)OCC)C1=NC(C)(C)CC(C)O1 (centres undefined) | – | > 200 | > 200
COc1ccc(N2C(=O)c3cc(C)cnc3S2(=O)=O)cc1 | – | 141 | > 200
COC(=O)N1C2C3CC4C2C4C3N1C(=O)OC | inactive | – | –

SMILES | outcome | EC50 [µM] | IC50 [µM]
COc1ccccc1NC(=O)C(CC(C(=O)Nc1ccccc1OC)/C(C)=N/NC(=O)c1ccccc1O)/C(C)=N/NC(=O)c1ccccc1O (centres undefined) | – | > 51.3 | > 51.3
OC1COC(c2ccccc2)OC1C1OC(c2ccccc2)OC2COC(c3ccccc3)OC21 (centres undefined) | – | > 100 | > 100
O=C(C(=O)N1CCc2ccccc21)c1c[nH]c2ccccc12 | – | > 200 | > 200
NC(CC1=CS(=O)(=O)c2ccc(Cl)cc21)C(=O)O (centres undefined) | – | > 200 | > 200
Brc1ccc(N=c2nc3ccccn3n3nc(-c4ccccc4)cc23)cc1 | – | > 24 | > 24
S=C1CSc2c(cnc3ccccc23)N1 | – | > 200 | 105
O=C(O)c1ccccc1S(=O)O | – | > 200 | > 200
COc1ccc(Nc2cc(N)nc(N)n2)c(=S)[nH]1 | – | > 676 | 57.5
C[N+]12CCCc3cccc(c31)CCC2 | – | > 794 | 182
CC(C)C1=C[C@@]23CCC4C(C)(C)CCC[C@]4(C(=O)O2)C3=CC1=O (some centres undefined) | – | > 43.7 | > 43.7
Nc1ccc2c(O)cc(=O)[nH]c2n1 | – | > 200 | > 200
COC(=O)/C(C#N)=C\n1c(=S)[nH]c2ccccc21 | – | > 200 | > 200
CCOC(=O)C12c3[nH]c4ccccc4c3CCN1CC1=NOC(=O)C12 (centres undefined) | – | > 132 | > 132
O=P(OCC1CCCO1)(OCC1CCCO1)OCC1CCCO1 (centres undefined) | inactive | – | –
Clc1cccc2nncc(N3CC3)c12 | inactive | – | –
CC(C)C(/C=C/c1ccc(Cl)c(Cl)c1)=N\NC(=O)N/N=C(/C=C/c1ccc(Cl)c(Cl)c1)C(C)C | – | > 200 | > 200
CNC(=O)CNC(=O)C(NC(=O)CNC(=O)C1CCCN1C(=O)C(C)NC(=O)C(NC(C)=O)C(C)C)C(C)C (centres undefined) (Ac-VAPGVG-NHMe; configuration not given here) | – | > 200 | > 200
C=C[C@@H]1c2ccccc2C=C[C@]1(CCC1(C)OCCO1)C1=NC(C)(C)CO1 | – | > 70.8 | > 70.8
COC(=O)N1C[C@@]2(C=CC3(CC2)OCCO3)c2ccccc21 | – | > 200 | 3.55
COc1cc(C2c3cc4c(cc3C(O)[C@H]3COC(=O)[C@@H]23)OCO4)cc(OC)c1O (some centres undefined) | – | > 200 | 1.12
CC1(C)OCC2OC3([C@@H]4OC(C)(C)O[C@H]4CO)OC(C)(C)OC3C2O1 (some centres undefined) | – | > 200 | > 200
